Here are results for 11 substances from patent US5424395A (priority 1992, dated 1995).

Series [1] is described as follows: extracellular fluid (ECF) from tobacco leaf in 50 mM Tris, pH 7.4. Particulars: 37° C., up to one hour.
In series [2] the test system is Erwinia carotovora carotovora strain SR319 (Ecc SR319). Nature of the series: Antibacterial bioassay, minimum complete inhibitory concentration (MCIC). In kind it is cell-based. The conditions noted are these: for activity against Ecc SR319 (in words): even at concentrations higher than 150 micrograms AMPPP/mL; for MEAN MCIC VALUE: lowest peptide concentration with no bacterial growth, after 20 hours, Luria broth, 28° C., mean of at least three replicate experiments. Here is the method:
Erwinia carotovora carotovora strain SR319 (Ecc SR319) (a gift of Dr. C. H. Liao, USDA-ARS, Philadelphia, Pa.) was streaked on a plate of LB agar and grown overnight at 28° C. After 24 hours, a loopful of Ecc SR319 was picked from the agar plate and was added to 3 mL of Luria broth (10 g Bacto-tryptone, 5 g Bacto-yeast extract, and 10 g sodium chloride per liter of solution; autoclaved sterile) in a capped, sterile 10 mL test tube. This culture was grown overnight before its optical density at 630 nm was recorded using a Dynatech MR600 microplate reader (Dynatech Laboratories, Inc., Alexandria, Va.). A portion of the overnight culture was adjusted with Luria broth to obtain a culture with an optical density at 630 nm of 0.2. About 250 microliters of this culture was added to 2250 microliters of Luria broth in a capped, sterile 10 mL test tube before this diluted culture was grown for 3 hours at 28° C. in a shaking incubator. The optical density at 630 nm of the freshly grown culture was recorded and a portion of this mid-logarithmic growth phase culture was diluted 1000-fold with Luria broth to an approximate concentration of about 10^5 colony forming units per mL of culture. About 85 microliters of this diluted culture was added to 12 wells in a 96 well microtiter plate for each AMPPP to be tested, with 1-4 replicate sets of 12 wells prepared for each AMPPP within a single experiment. Stock solutions of each AMPPP were prepared at a concentration of 1 mg/mL and 0-15 microliters of each peptide stock solution were added to a single well in the microtiter plate followed by a sufficient volume of water to bring the total well volume to 100 microliters. Typical peptide volumes assayed were 0, 1, 2, 3, 4, 5, 6, 7, 8, 9, 10 and 15 microliters, which corresponds to a final peptide concentration in the range of 0-150 micrograms/mL. The microtiter plates were sealed with parafilm and incubated on a shaking platform at 28° C. for 44 hours. The optical density of each Ecc SR319 culture well was recorded at 20 hours and then at 44 hours. A minimum complete inhibitory concentration (MCIC) was then determined for each replicate set of varying peptide concentrations for each AMPPP whereby the MCIC is defined as the lowest peptide concentration at which no bacterial growth was observed. Table I lists mean MCIC values computed after 20 hours of treatment from at least three replicate experiments with each AMPPP. "Met(S)(O)" and "Met(R)(O)" refer to the diastereomeric forms of a methionine sulfoxide residue.
Although most of the AMPPP compounds listed in Table I were greater than 95% homogeneous following reverse phase HPLC purification, AMPPPs #24-26 and #28 were only 50-80% pure following partial purification and salt exchange by ion exchange chromatography.

Series [3] relates to P3 Fusarium. In words: Antifungal bioassay (spore germination MCIC). In kind it is cell-based, P3 Fusarium (field isolate). Particulars: lowest concentration with no spore germination, after 24 hours. Here is the method:
(§1) Fungi are grown on an appropriate medium, in this case a potato dextrose agar plate, for several weeks. At the end of that period, the plate was flooded with about 5 mL of sterile distilled water to harvest spores. The spore concentration was determined by use of a hemocytometer and the spore suspension was stored in a sterile tube at 4° C. until it was needed. Then 82 microliters of potato dextrose broth and 3 microliters of spore suspension (ranging from 10^5 to 10^7 spores total) was then added to 12 wells in a 96 well microtiter plate for each AMPPP to be tested, with 1-4 replicate sets of 12 wells prepared for each AMPPP within a single experiment. […] The amount of spore germination and fungal growth was recorded as a qualitative measurement at each observation time using a system of pluses and minuses: [-] meant no germination having occurred, [+] meant swollen spores with an extended germ tube, [++] meant the beginnings of mycelial growth with the overall appearance of a loose lattice, and [+++] meant a dense mycelial growth with the overall appearance of a thick opaque meshwork. The MCIC value for each AMPPP tested was then recorded, where the MCIC value is defined as the lowest peptide concentration at which no spore germination occurred (rating=[-]). […]

Series [4] has as its system Trichoderma reesei. In words: Antifungal bioassay (spore germination MCIC). In kind it is cell-based. The conditions noted are these: lowest concentration with no spore germination, after 24 hours. Here is the method: as §1
The test system of series [5] is P3 Fusarium. In words: Effect of ECF or spent media on antifungal activity of AMPPPs. In kind it is cell-based. Particulars: ECF source Tobacco Leaf, 10% (v/v); comparison of MCIC with and without ECF. From the text: It is critical to understand the effect of plant proteolytic enzymes on AMPPP activity because any AMPPP applied to crop plants will be in contact with plant tissues and any associated plant proteases. It is important to assess the bioactivity of an AMPPP which may be cleaved by one or more plant proteases as well as to recognize that such an event has occurred. An extract of extracellular fluid (ECF) as described in Example 14 is a useful reagent in determining such loss of antimicrobial activity of AMPPPs due to exposure to plant proteases in the extracellular compartment of plant tissues. Bioassay experiments were conducted with 300-1000 pregerminated P3 Fusarium spores essentially as described in Example 13 for various AMPPPs exposed to ECF from several crop species, or exposed to spent media collected as a supernatant from centrifuged three-day-old P3 Fusarium cultures grown in potato dextrose broth (PDB), corn stalk medium (CSM), or water as detailed below. The only major difference in the bioassay method used from that described in Example 13 was that the bioassay was conducted in a total culture volume of 10 microliters rather than 100 microliters. ECF was present in these bioassays at a final concentration of 10% (v/v) and was added concurrently with an AMPPP to the Fusarium spores at various AMPPP concentrations. […]

Series [6] concerns extracellular plant proteases. In words: Resistance to proteolytic degradation by leaf extracellular fluid (ECF), HPLC. In kind it is in vitro ADME, tobacco. Particulars: 2.5% (v/v) ECF, 50 mM Tris pH 7.4, 37° C., one hour, relative to area of parent peak with no added ECF. From the text: To determine the sensitivity of AMPPPs to extracellular proteases, and to determine the site of processing by these proteases, a system was designed to obtain extracellular fluid from leaves of maize, tobacco, and potato and to use these to test the stability of AMPPPs.
Extracellular fluid (ECF) was obtained in accordance with Z. Klement, "Method Of Obtaining Fluid From the Intercellular Space of Foliage and the Fluid's Merit As Substrate For Phytobacterial Pathogens," supra by cutting interveinal pieces from tobacco leaf after they were rinsed in deionized water. The segments were submerged in water in a vacuum desiccator and vacuum was applied for five to 10 minutes. The vacuum was released slowly, the leaves were blotted dry and four to five pieces were rolled and placed in a 50 mL disposable syringe barrel cut down so as to be able to fit in a swinging bucket centrifuge rotor. The syringe barrel was placed in a 50 mL screw cap conical centrifuge tube and centrifuged in a swinging bucket rotor at 500×g for 30 minutes. […]
Peptides were analyzed by reverse phase chromatography on a 4.6 mm×250 mm Vydac C-4 protein column (Nest Group, Southboro, Mass.) using a 0% to 60% acetonitrile gradient in 0.1% TFA in 30 minutes on a Hewlett-Packard HP1090 high pressure liquid chromatograph (Hewlett-Packard, Avondale, Pa.). […] These peptides were purified and analyzed by FAB-MS and amino acid analysis. […]

“Also recorded” adds a separate entry of the source. Where no end group is shown, it is not given here.

In the case of GIGKFLHSAGKFGKAFVGEIMKS-OH, the cleaved bond entry in series [1] is given as “His7-Ser8”.

For GIGKFLHSAKKFGKAFVGEIMNS-OH, the cleaved bond entry in series [1] was “His7-Ser8; also recorded: Met21-Asn22”.

Consider GIGKFLFSAKKFGKAFVGEIMNS-OH, for which the cleaved bond result in series [1] is given as “Phe7-Ser8”.

Consider GIGKFLHAAKKFGKAFVGEIMNS-OH, for which the cleaved bond result in series [1] is “His7-Ala8”.

Consider GIGKFLKSAKKFGKAFVGEIMNS-OH, for which the cleaved bond entry in series [1] is given as “Lys7-Ser8”.

As for [Met^21 (S)(O)Mag 2-OH [AMPPP 6], in series [2], the “activity against Ecc SR319 (in words)” value is “not active” and the “MEAN MCIC VALUE” is listed as over 150 micrograms/mL. For the same substance, the “Mean MCIC Values against: P3 Fusarium (10^7 spores)” value in series [3] was found to be 40 micrograms/mL. In series [4], the “Mean MCIC Values against: Trichoderma reesei (10^6 spores)” value stood at 75 micrograms/mL. In series [5], the “Approximate % Reduction in Antifungal Activity by ECF” value is recorded as 50%.

With GIGKFLRSAKKFGKAFVGEIMNS-OH, in series [1], the cleaved bond entry is recorded as “Arg7-Ser8”.

“GIGKFLHSAKKFGKAFVGEIMNS [AMPPP 1, Magainin 2-OH]”: in series [6], the “Total Area Under Chromatogram Peaks: Fragment Gly^1 Xaa^7” value is listed as 15.2%. In series [6] (cerebrospinal or other body fluid, read-out: Total Area Under Chromatogram Peaks: Parent AMPPP), the remaining at 1 h was found to be 54.4%.

Turning to GIGKFLHTAKKFGKAFVGEIMNS-OH, in series [1], the cleaved bond entry is on record as “His7-Thr8”.

For the substance [Met^21 (R)(O)]Mag 2-OH [AMPPP 7], in series [2], the “activity against Ecc SR319 (in words)” value is listed as “not active” and the “MEAN MCIC VALUE” was over 150 micrograms/mL. The “Mean MCIC Values against: P3 Fusarium (10^7 spores)” value in series [3] worked out at 50 micrograms/mL. Moreover, in series [4], the “Mean MCIC Values against: Trichoderma reesei (10^6 spores)” value was 75 micrograms/mL.

As for GIGKFLHEAKKFGKAFVGEIMNS-OH, the cleaved bond entry in series [1] was “His7-Glu8”.
